Numbers after ± are expanded uncertainties.
Details: Liquid, Vibrating tube method

CCCCCCC(=O)OCC(COCC(COC(=O)CCCCCC)(COC(=O)CCCCCC)COC(=O)CCCCCC)(COC(=O)CCCCCC)COC(=O)CCCCCC [dipentaerythritol hexaheptanoate] showed a mass density (283.15 K, 100 kPa) of 1000.3 ± 5.4 kg/m3, a mass density (283.15 K, 1000 kPa) of 1000.9 ± 5.4 kg/m3 and a mass density (283.15 K, 5000 kPa) of 1003.2 ± 5.4 kg/m3. It also gave a mass density (283.15 K, 10000 kPa) of 1005.9 ± 5.5 kg/m3, a mass density (283.15 K, 20000 kPa) of 1011.2 ± 5.5 kg/m3 and a mass density (283.15 K, 30000 kPa) of 1016.1 ± 5.6 kg/m3. For the same compound, the mass density (283.15 K, 40000 kPa) was 1020.8 ± 5.7 kg/m3, the mass density (283.15 K, 50000 kPa) was 1025.4 ± 5.7 kg/m3 and the mass density (283.15 K, 60000 kPa) was 1029.9 ± 5.8 kg/m3. The mass density (283.15 K, 70000 kPa) was 1034.2 ± 5.9 kg/m3, the mass density (298.15 K, 100 kPa) was 989.7 ± 5.3 kg/m3 and the mass density (298.15 K, 1000 kPa) was 990.3 ± 5.3 kg/m3. It also gave a mass density (298.15 K, 5000 kPa) of 992.8 ± 5.3 kg/m3, a mass density (298.15 K, 10000 kPa) of 995.7 ± 5.4 kg/m3 and a mass density (298.15 K, 20000 kPa) of 1001.3 ± 5.4 kg/m3. For the same compound, the mass density (298.15 K, 30000 kPa) was 1006.4 ± 5.5 kg/m3, the mass density (298.15 K, 40000 kPa) was 1011.3 ± 5.5 kg/m3 and the mass density (298.15 K, 50000 kPa) was 1016.1 ± 5.6 kg/m3. It also gave a mass density (298.15 K, 60000 kPa) of 1020.7 ± 5.7 kg/m3, a mass density (298.15 K, 70000 kPa) of 1025.2 ± 5.7 kg/m3 and a mass density (323.15 K, 100 kPa) of 971.7 ± 5.1 kg/m3. It also gave a mass density (323.15 K, 1000 kPa) of 972.2 ± 5.1 kg/m3, a mass density (323.15 K, 5000 kPa) of 974.9 ± 5.1 kg/m3 and a mass density (323.15 K, 10000 kPa) of 978.2 ± 5.2 kg/m3. The mass density (323.15 K, 20000 kPa) was 984.4 ± 5.2 kg/m3, the mass density (323.15 K, 30000 kPa) was 990.1 ± 5.3 kg/m3 and the mass density (323.15 K, 40000 kPa) was 995.5 ± 5.4 kg/m3. For the same compound, the mass density (323.15 K, 50000 kPa) was 1000.6 ± 5.4 kg/m3, the mass density (323.15 K, 60000 kPa) was 1005.6 ± 5.5 kg/m3 and the mass density (323.15 K, 70000 kPa) was 1010.3 ± 5.5 kg/m3. For the same compound, the mass density (333.15 K, 100 kPa) was 964.4 ± 5 kg/m3, the mass density (333.15 K, 1000 kPa) was 965.1 ± 5 kg/m3 and the mass density (333.15 K, 5000 kPa) was 967.9 ± 5.1 kg/m3. The mass density (333.15 K, 10000 kPa) was 971.3 ± 5.1 kg/m3, the mass density (333.15 K, 20000 kPa) was 977.8 ± 5.2 kg/m3 and the mass density (333.15 K, 30000 kPa) was 983.7 ± 5.2 kg/m3. For the same compound, the mass density (333.15 K, 40000 kPa) was 989.3 ± 5.3 kg/m3, the mass density (333.15 K, 50000 kPa) was 994.6 ± 5.4 kg/m3 and the mass density (333.15 K, 60000 kPa) was 999.7 ± 5.4 kg/m3. For the same compound, the mass density (333.15 K, 70000 kPa) was 1004.6 ± 5.5 kg/m3, the mass density (348.15 K, 100 kPa) was 953.7 ± 4.9 kg/m3 and the mass density (348.15 K, 1000 kPa) was 954.4 ± 4.9 kg/m3. For the same compound, the mass density (348.15 K, 5000 kPa) was 957.4 ± 5 kg/m3, the mass density (348.15 K, 10000 kPa) was 961 ± 5 kg/m3 and the mass density (348.15 K, 20000 kPa) was 967.8 ± 5.1 kg/m3. For the same compound, the mass density (348.15 K, 30000 kPa) was 974.1 ± 5.2 kg/m3, the mass density (348.15 K, 40000 kPa) was 980 ± 5.2 kg/m3 and the mass density (348.15 K, 50000 kPa) was 985.6 ± 5.3 kg/m3. For the same compound, the mass density (348.15 K, 60000 kPa) was 990.9 ± 5.3 kg/m3, the mass density (348.15 K, 70000 kPa) was 996 ± 5.4 kg/m3 and the mass density (373.15 K, 100 kPa) was 935 ± 11 kg/m3. It also gave a mass density (373.15 K, 1000 kPa) of 936.6 ± 7.4 kg/m3, a mass density (373.15 K, 5000 kPa) of 939.9 ± 7.4 kg/m3 and a mass density (373.15 K, 10000 kPa) of 943.9 ± 7.5 kg/m3. For the same compound, the mass density (373.15 K, 20000 kPa) was 951.4 ± 7.5 kg/m3, the mass density (373.15 K, 30000 kPa) was 958.3 ± 7.6 kg/m3 and the mass density (373.15 K, 40000 kPa) was 964.7 ± 7.6 kg/m3. It also gave a mass density (373.15 K, 50000 kPa) of 970.8 ± 7.6 kg/m3, a mass density (373.15 K, 60000 kPa) of 976.5 ± 7.7 kg/m3 and a mass density (373.15 K, 70000 kPa) of 981.9 ± 7.7 kg/m3. For the same compound, the mass density (398.15 K, 100 kPa) was 917.4 ± 11 kg/m3, the mass density (398.15 K, 1000 kPa) was 918.2 ± 7.3 kg/m3 and the mass density (398.15 K, 5000 kPa) was 921.7 ± 7.3 kg/m3. It also gave a mass density (398.15 K, 10000 kPa) of 926.1 ± 7.4 kg/m3, a mass density (398.15 K, 20000 kPa) of 934.4 ± 7.4 kg/m3 and a mass density (398.15 K, 30000 kPa) of 941.9 ± 7.5 kg/m3. It also gave a mass density (398.15 K, 40000 kPa) of 948.9 ± 7.5 kg/m3, a mass density (398.15 K, 50000 kPa) of 955.5 ± 7.6 kg/m3 and a mass density (398.15 K, 60000 kPa) of 961.6 ± 7.6 kg/m3. The mass density (398.15 K, 70000 kPa) was 967.3 ± 7.6 kg/m3.

With CCCCC(=O)OCC(COCC(COC(=O)CCCC)(COC(=O)CCCC)COC(=O)CCCC)(COC(=O)CCCC)COC(=O)CCCC the mass density (283.15 K, 100 kPa) was 1045 ± 5.9 kg/m3, the mass density (283.15 K, 1000 kPa) was 1045.5 ± 5.9 kg/m3 and the mass density (283.15 K, 5000 kPa) was 1047.7 ± 5.9 kg/m3. It also gave a mass density (283.15 K, 10000 kPa) of 1050.4 ± 6 kg/m3, a mass density (283.15 K, 20000 kPa) of 1055.8 ± 6.1 kg/m3 and a mass density (283.15 K, 30000 kPa) of 1060.9 ± 6.2 kg/m3. For the same compound, the mass density (283.15 K, 40000 kPa) was 1065.8 ± 6.3 kg/m3, the mass density (283.15 K, 50000 kPa) was 1070.5 ± 6.3 kg/m3 and the mass density (283.15 K, 60000 kPa) was 1075 ± 6.4 kg/m3. It also gave a mass density (283.15 K, 70000 kPa) of 1079.3 ± 6.5 kg/m3, a mass density (298.15 K, 100 kPa) of 1033.7 ± 5.8 kg/m3 and a mass density (298.15 K, 1000 kPa) of 1034.2 ± 5.8 kg/m3. The mass density (298.15 K, 5000 kPa) was 1036.7 ± 5.8 kg/m3, the mass density (298.15 K, 10000 kPa) was 1039.7 ± 5.9 kg/m3 and the mass density (298.15 K, 20000 kPa) was 1045.4 ± 5.9 kg/m3. For the same compound, the mass density (298.15 K, 30000 kPa) was 1050.7 ± 6 kg/m3, the mass density (298.15 K, 40000 kPa) was 1055.9 ± 6.1 kg/m3 and the mass density (298.15 K, 50000 kPa) was 1060.8 ± 6.2 kg/m3. It also gave a mass density (298.15 K, 60000 kPa) of 1065.5 ± 6.3 kg/m3, a mass density (298.15 K, 70000 kPa) of 1070 ± 6.4 kg/m3 and a mass density (323.15 K, 100 kPa) of 1014.6 ± 5.6 kg/m3. For the same compound, the mass density (323.15 K, 1000 kPa) was 1015.2 ± 5.6 kg/m3, the mass density (323.15 K, 5000 kPa) was 1018 ± 5.6 kg/m3 and the mass density (323.15 K, 10000 kPa) was 1021.3 ± 5.6 kg/m3. It also gave a mass density (323.15 K, 20000 kPa) of 1027.6 ± 5.7 kg/m3, a mass density (323.15 K, 30000 kPa) of 1033.5 ± 5.8 kg/m3 and a mass density (323.15 K, 40000 kPa) of 1039 ± 5.9 kg/m3. The mass density (323.15 K, 50000 kPa) was 1044.4 ± 6 kg/m3, the mass density (323.15 K, 60000 kPa) was 1049.5 ± 6.1 kg/m3 and the mass density (323.15 K, 70000 kPa) was 1054.3 ± 6.2 kg/m3. It also gave a mass density (333.15 K, 100 kPa) of 1007 ± 5.5 kg/m3, a mass density (333.15 K, 1000 kPa) of 1007.7 ± 5.5 kg/m3 and a mass density (333.15 K, 5000 kPa) of 1010.6 ± 5.5 kg/m3. It also gave a mass density (333.15 K, 10000 kPa) of 1014 ± 5.6 kg/m3, a mass density (333.15 K, 20000 kPa) of 1020.6 ± 5.6 kg/m3 and a mass density (333.15 K, 30000 kPa) of 1026.7 ± 5.7 kg/m3. For the same compound, the mass density (333.15 K, 40000 kPa) was 1032.4 ± 5.8 kg/m3, the mass density (333.15 K, 50000 kPa) was 1037.9 ± 5.9 kg/m3 and the mass density (333.15 K, 60000 kPa) was 1043.2 ± 6 kg/m3. The mass density (333.15 K, 70000 kPa) was 1048.2 ± 6.1 kg/m3, the mass density (348.15 K, 100 kPa) was 995.5 ± 5.3 kg/m3 and the mass density (348.15 K, 1000 kPa) was 996.3 ± 5.4 kg/m3. For the same compound, the mass density (348.15 K, 5000 kPa) was 999.4 ± 5.4 kg/m3, the mass density (348.15 K, 10000 kPa) was 1003.1 ± 5.4 kg/m3 and the mass density (348.15 K, 20000 kPa) was 1010 ± 5.5 kg/m3. The mass density (348.15 K, 30000 kPa) was 1016.4 ± 5.6 kg/m3, the mass density (348.15 K, 40000 kPa) was 1022.5 ± 5.7 kg/m3 and the mass density (348.15 K, 50000 kPa) was 1028.3 ± 5.8 kg/m3. The mass density (348.15 K, 60000 kPa) was 1033.8 ± 5.9 kg/m3, the mass density (348.15 K, 70000 kPa) was 1039.1 ± 5.9 kg/m3 and the mass density (373.15 K, 100 kPa) was 975.7 ± 11 kg/m3. For the same compound, the mass density (373.15 K, 1000 kPa) was 977.3 ± 7.6 kg/m3, the mass density (373.15 K, 5000 kPa) was 980.8 ± 7.7 kg/m3 and the mass density (373.15 K, 10000 kPa) was 984.9 ± 7.7 kg/m3. For the same compound, the mass density (373.15 K, 20000 kPa) was 992.5 ± 7.7 kg/m3, the mass density (373.15 K, 30000 kPa) was 999.6 ± 7.8 kg/m3 and the mass density (373.15 K, 40000 kPa) was 1006.2 ± 7.8 kg/m3. For the same compound, the mass density (373.15 K, 50000 kPa) was 1012.5 ± 7.9 kg/m3, the mass density (373.15 K, 60000 kPa) was 1018.4 ± 7.9 kg/m3 and the mass density (373.15 K, 70000 kPa) was 1024 ± 8 kg/m3. The mass density (398.15 K, 100 kPa) was 957 ± 11 kg/m3, the mass density (398.15 K, 1000 kPa) was 957.8 ± 7.5 kg/m3 and the mass density (398.15 K, 5000 kPa) was 961.4 ± 7.5 kg/m3. It also gave a mass density (398.15 K, 10000 kPa) of 965.9 ± 7.6 kg/m3, a mass density (398.15 K, 20000 kPa) of 974.4 ± 7.6 kg/m3 and a mass density (398.15 K, 30000 kPa) of 982.1 ± 7.7 kg/m3. It also gave a mass density (398.15 K, 40000 kPa) of 989.3 ± 7.7 kg/m3, a mass density (398.15 K, 50000 kPa) of 996.1 ± 7.7 kg/m3 and a mass density (398.15 K, 60000 kPa) of 1002.4 ± 7.8 kg/m3. For the same compound, the mass density (398.15 K, 70000 kPa) was 1008.4 ± 7.8 kg/m3.

From the NIST ThermoML archive (doi:10.1016/j.fluid.2010.01.019)
